Source: publication PMC10824666 (Nature Cancer, 2023)
Read-outs that look alike come from different tables or passages of the source.

What was measured:
Assay in all cases: biochemical
Set-up in all cases: Eurofins DiscoverX kinase panel, competitive binding assay at 1 uM, percent of DMSO control
Details in all cases: competitive binding, percent of DMSO control
ALK = ALK (Homo sapiens, UniProt Q9UM73)
Procedure, shortened: (§1)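 Competitive binding assay across a 96-kinase panel with KIF18A compounds at 1 µM; values given as percentage of control (POC), single experiment.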

TAK1 = molecular target: T1, TAK1 (Homo sapiens, UniProt O43318)
T1 construct: gene MAP3K7
T1 sequence (O43318 1-606): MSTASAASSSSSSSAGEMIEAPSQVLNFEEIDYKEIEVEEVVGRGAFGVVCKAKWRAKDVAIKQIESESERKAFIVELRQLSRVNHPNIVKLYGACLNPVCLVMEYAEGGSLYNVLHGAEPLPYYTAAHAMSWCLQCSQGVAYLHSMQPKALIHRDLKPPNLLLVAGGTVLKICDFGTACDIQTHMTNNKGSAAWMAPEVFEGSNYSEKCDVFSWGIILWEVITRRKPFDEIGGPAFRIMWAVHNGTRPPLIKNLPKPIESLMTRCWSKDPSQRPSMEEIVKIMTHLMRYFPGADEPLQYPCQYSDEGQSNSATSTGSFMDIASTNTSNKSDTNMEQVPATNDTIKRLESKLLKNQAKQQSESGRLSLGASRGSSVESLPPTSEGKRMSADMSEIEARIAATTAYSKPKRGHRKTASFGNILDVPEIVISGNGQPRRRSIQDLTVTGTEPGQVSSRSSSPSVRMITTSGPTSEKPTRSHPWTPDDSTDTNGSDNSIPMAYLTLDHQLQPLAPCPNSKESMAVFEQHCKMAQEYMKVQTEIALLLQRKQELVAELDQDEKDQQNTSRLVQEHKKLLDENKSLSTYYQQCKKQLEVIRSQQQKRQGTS
Procedure, shortened: as §1

STK32B = STK32B (Homo sapiens, UniProt Q9NY57)
Chain of STK32B (Q9NY57 whole entry): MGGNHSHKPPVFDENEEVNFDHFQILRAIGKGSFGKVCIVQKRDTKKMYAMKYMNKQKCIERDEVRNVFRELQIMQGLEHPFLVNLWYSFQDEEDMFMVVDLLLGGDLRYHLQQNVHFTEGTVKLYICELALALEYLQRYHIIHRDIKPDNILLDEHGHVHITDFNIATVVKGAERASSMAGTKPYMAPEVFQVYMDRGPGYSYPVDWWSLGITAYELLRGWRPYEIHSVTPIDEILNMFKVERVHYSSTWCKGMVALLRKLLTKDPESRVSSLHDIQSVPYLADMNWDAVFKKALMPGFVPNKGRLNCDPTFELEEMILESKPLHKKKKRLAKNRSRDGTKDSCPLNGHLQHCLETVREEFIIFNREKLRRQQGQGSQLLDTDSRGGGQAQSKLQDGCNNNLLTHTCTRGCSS
Procedure, shortened: as §1

CDK18 = CDK18 (Homo sapiens, UniProt Q07002)
Chain of CDK18 (Q07002 whole entry): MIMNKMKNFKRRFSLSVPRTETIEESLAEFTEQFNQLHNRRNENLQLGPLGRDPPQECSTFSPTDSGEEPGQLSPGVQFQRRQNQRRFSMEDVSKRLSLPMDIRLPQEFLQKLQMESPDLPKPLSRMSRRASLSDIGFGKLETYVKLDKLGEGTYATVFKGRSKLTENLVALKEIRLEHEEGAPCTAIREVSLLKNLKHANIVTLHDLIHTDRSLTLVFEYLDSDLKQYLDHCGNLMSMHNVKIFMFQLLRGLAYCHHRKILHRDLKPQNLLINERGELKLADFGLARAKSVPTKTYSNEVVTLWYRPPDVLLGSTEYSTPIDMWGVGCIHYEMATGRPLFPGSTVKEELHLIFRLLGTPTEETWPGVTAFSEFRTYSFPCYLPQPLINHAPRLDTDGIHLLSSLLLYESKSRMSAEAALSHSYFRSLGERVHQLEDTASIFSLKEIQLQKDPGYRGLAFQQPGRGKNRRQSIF
Procedure, shortened: as §1

[1] = read-out: Kinome Profiling performed by Eurofins DiscoverX / AM-1882, 1.0 µM / POC
[2] = read-out: Kinome Profiling performed by Eurofins DiscoverX / AM-0277, 1.0 µM / POC
[3] = read-out: Kinome Profiling performed by Eurofins DiscoverX / AM-5308, 1.0 µM / POC

Chain of ALK (Q9UM73 whole entry): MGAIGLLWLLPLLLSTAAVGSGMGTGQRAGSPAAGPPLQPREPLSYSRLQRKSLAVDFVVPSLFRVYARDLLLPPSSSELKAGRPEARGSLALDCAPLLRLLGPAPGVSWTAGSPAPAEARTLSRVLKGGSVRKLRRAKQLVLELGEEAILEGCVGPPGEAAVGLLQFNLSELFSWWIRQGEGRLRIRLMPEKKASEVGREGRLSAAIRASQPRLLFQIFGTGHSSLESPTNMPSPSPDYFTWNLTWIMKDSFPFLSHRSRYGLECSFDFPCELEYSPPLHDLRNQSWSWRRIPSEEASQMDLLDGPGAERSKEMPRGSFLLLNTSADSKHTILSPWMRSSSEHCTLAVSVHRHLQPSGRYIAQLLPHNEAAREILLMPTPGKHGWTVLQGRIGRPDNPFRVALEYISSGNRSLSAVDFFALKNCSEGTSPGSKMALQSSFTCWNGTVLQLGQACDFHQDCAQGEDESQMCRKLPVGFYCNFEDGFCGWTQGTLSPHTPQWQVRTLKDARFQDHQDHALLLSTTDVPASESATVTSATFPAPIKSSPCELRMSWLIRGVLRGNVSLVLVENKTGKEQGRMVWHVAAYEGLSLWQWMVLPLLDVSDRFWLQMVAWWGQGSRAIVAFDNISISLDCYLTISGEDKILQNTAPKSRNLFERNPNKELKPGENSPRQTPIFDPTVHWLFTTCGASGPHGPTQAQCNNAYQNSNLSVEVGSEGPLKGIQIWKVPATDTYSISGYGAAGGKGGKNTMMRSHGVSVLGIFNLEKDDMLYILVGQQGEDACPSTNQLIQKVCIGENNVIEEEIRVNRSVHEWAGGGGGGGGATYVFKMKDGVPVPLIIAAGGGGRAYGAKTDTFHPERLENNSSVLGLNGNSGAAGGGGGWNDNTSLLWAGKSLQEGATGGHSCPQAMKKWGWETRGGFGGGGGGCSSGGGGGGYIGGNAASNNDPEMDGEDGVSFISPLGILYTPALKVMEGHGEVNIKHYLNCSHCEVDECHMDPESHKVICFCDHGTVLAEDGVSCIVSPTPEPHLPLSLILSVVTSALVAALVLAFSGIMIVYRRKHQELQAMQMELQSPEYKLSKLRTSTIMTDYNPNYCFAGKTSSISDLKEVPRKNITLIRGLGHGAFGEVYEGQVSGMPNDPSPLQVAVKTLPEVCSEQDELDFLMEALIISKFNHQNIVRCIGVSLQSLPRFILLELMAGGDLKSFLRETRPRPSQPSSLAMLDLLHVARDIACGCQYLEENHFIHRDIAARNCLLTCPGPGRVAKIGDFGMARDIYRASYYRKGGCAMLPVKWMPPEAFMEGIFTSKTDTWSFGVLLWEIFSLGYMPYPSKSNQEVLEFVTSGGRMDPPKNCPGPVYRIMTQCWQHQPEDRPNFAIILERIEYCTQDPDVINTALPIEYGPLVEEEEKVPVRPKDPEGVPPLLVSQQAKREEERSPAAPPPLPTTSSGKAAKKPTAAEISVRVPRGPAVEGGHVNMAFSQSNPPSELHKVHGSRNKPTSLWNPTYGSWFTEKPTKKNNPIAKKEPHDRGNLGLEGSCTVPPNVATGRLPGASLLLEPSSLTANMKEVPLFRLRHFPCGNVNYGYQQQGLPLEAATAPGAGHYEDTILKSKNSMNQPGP

Q: Which remaining activity at 1 µM (ALK; [1]) does the source give for CC(C)(C)NS(=O)(=O)c1cccc(NC(=O)c2ccc(S(=O)(=O)NC(C)(C)C)cc2N2CCC3(CC2)CC3)c1 [AM-1882] here?
A: The remaining activity at 1 µM was 81%.

Q: And the remaining activity at 1 µM (TAK1; [1])?
A: The remaining activity at 1 µM was 100%.

Q: What about the remaining activity at 1 µM (STK32B; [1]) of the same molecule?
A: The remaining activity at 1 µM was 100%.

Q: And the remaining activity at 1 µM (CDK18; [1])?
A: The remaining activity at 1 µM was 76%.

Q: Which results are given for CC(C)(CO)Nc1ccc(C(=O)Nc2cccc(S(=O)(=O)C3CCCC3)c2)c(N2CCC3(CC2)CC3)n1 [AM-0277]?
A: remaining activity at 1 µM (ALK; [2]): 100%; remaining activity at 1 µM (TAK1; [2]): 100%; remaining activity at 1 µM (STK32B; [2]): 100%; remaining activity at 1 µM (CDK18; [2]): 78%

Q: Which results are given for C[C@@H]1CN(c2cccc(NC(=O)c3ccc(NS(=O)(=O)CCO)cc3N3CCC4(CC3)CC4)n2)CCO1 [AM-5308]?
A: remaining activity at 1 µM (ALK; [3]): 89%; remaining activity at 1 µM (TAK1; [3]): 88.5%; remaining activity at 1 µM (STK32B; [3]): 96%; remaining activity at 1 µM (CDK18; [3]): 94%
